This is an account of results in PMC5423648, “Acetyl group coordinated progression through the catalytic cycle of an arylalkylamine N-acetyltransferase” (PLoS ONE, 2017).

The assay addresses T1, DAT (Drosophila melanogaster, UniProt Q94521).
T1 construct: gene speck; construct, tags and host of the DAT used for ITC not described
Description: ITC. The class given is binding.

T1 sequence (Q94521 36-275): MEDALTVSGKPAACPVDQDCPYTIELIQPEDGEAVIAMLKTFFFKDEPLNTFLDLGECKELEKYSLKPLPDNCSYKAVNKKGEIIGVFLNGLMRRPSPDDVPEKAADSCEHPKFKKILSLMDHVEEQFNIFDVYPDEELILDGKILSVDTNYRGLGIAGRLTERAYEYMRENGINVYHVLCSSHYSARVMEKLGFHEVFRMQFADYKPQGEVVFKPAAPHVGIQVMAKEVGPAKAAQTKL

In turn, `CC(=O)SCCNC(=O)CCNC(=O)[C@H](O)C(C)(C)COP(=O)(O)OP(=O)(O)OC[C@H]1O[C@@H](n2cnc3c(N)ncnc32)[C@H](O)[C@@H]1OP(=O)(O)O` [acetyl-CoA] showed a Kd of 3.7 ± 0.1 µM.

For orientation: Kd means the constant that tells how readily two partners part at equilibrium.
